# Structures can show the parent of a compound that is named as a salt.
# System: HIV-1 NL4-3 strain
# Experiment: Evaluation of antiviral activity: acute infection system of MT-4 cell with HIV-1 NL4-3 strain
# Assay type: cell-based
# Conditions: Human immunodeficiency virus 1, NL43, MT4, 120 h, MT-4 cells infected with HIV-1 NL4-3 strain (MOI 0.05), cultured 5 days, Cell Titer-Glo; read-out: antiviral activity (EC50)
row,SMILES,EC50
1,"CCN1C[C@@]2(C[C@@H]2C(=O)O)n2cc(C(=O)NCc3ccc(F)cc3F)c(=O)c(O)c2C1=O [Example T7, (1S,2S)-7′-(2,4-difluorobenzylcarbamoyl)-2′-ethyl-9′-hydroxy-1′,8′-dioxo-1′,2′,3′,8′-tetrahydrospiro[cyclopropane-1,4′-pyrido[1,2-a]pyrazine]-2-carboxylic acid hydrochloride]",15 nM
2,"CCN1C[C@@]2(C[C@@H]2C(=O)NC)n2cc(C(=O)NCc3ccc(F)cc3F)c(=O)c(O)c2C1=O [Example T8, (1S,2S)-N^7′-(2,4-difluorobenzyl)-2′-ethyl-9′-hydroxy-N^2-methyl-1′,8′-dioxo-1′,2′,3′,8′-tetrahydrospiro[cylcopropane-1,4′-pyrido[1,2-a]pyrazine]-2,7′-dicarboxamide hydrochloride]",6.1 nM
3,"COC[C@H]1C[C@@]12CN(C(C)C)C(=O)c1c(O)c(=O)c(C(=O)NCc3cccc(Cl)c3F)cn12 [Example T12, (1S,2S)-N-(3-chloro-2-fluorobenzyl)-9′-hydroxy-2′-isopropyl-2-(methoxymethyl)-1′,8′-dioxo-1′,2′,3′,8′-tetrahydrospiro[cylcopropane-1,4′-pyrido[1,2-a]pyrazine]-7′-carboxamide hydrochloride]",5.7 nM
4,"COC[C@H]1C[C@@]12CN(C)C(=O)c1c(O)c(=O)c(C(=O)NCc3cccc(Cl)c3F)cn12 [Example T16, (1S.2S)-N-(3-chloro-2-fluorobenzyl)-9′-hydroxy-2-(methoxymethyl)-2′-methyl-1′,8′-dioxo-1′,2′,3′,8′-tetrahydrospiro[cyclopropane-1,4′-pyrido[1,2-a]pyrazine]-7′-carboxamide hydrochloride]",4.2 nM
5,"CCN1C[C@@]2(C[C@@H]2COC)n2cc(C(=O)NCc3cccc(Cl)c3F)c(=O)c(O)c2C1=O [Example T19, (1S,2S)-N-(3-chloro-2-fluorobenzyl)-2′-ethyl-9′-hydroxy-2-(methoxymethyl)-1′,8′-dioxo-1′,2′,3′,8′-tetrahydrospiro[cyclopropane-1,4′-pyrido[1,2-a]pyrazine]-7′-carboxamide]",3.8 nM
6,"COC[C@H]1C[C@@]12CN(C)C(=O)c1c(O)c(=O)c(C(=O)NCc3cc(OC)cc(Cl)c3F)cn12 [Example T21, (1S,2S)-N-(3-chloro-2-fluoro-5-methoxybenzyl)-9′-hydroxy-2-(methoxymethyl)-2′-methyl-1′,8′-dioxo-1′,2′,3′,8′-tetrahydrospiro[cyclopropane-1,4′-pyrido[1,2-a]pyrazine]-7′-carboxamide]",6.1 nM

# Same assay, conditions: Human immunodeficiency virus 1, NL43, MT4, 120 h, read-out: antiviral activity (EC50), MT-4 cells infected with HIV-1 NL4-3 strain (MOI 0.05), cultured 5 days, Cell Titer-Glo
row,SMILES,EC50
1,"CC(C)N1C[C@]2(C[C@H]2CO)n2cc(C(=O)NCc3cccc(Cl)c3F)c(=O)c(O)c2C1=O [Example T5, (1R,2R)-N-(3-chloro-2-fluorobenzyl)-9′-hydroxy-2-(hydroxymethyl)-2′-isopropyl-1′,8′-dioxo-1′,2′,3′,8′-tetrahydrospiro[cyclopropane-1,4′-pyrido[1,2-a]pyrazine]-7′-carboxamide hydrochloride]",4 nM
2,"COC[C@@H]1C[C@]12CN(C(C)C)C(=O)c1c(O)c(=O)c(C(=O)NCc3cccc(Cl)c3F)cn12 [Example T6, (1R,2R)-N-(3-chloro-2-fluorobenzyl)-9′-hydroxy-2′-isopropyl-2-(methoxymethyl)-1′,8′-dioxo-1′,2′,3′,8′-tetrahydrospiro[cyclopropane-1,4′-pyrido[1,2-a]pyrazine]-7′-carboxamide hydrochloride]",3.8 nM
3,"CCN1C[C@]2(C[C@H]2COC)n2cc(C(=O)NCc3ccc(F)cc3F)c(=O)c(O)c2C1=O [Example T9, (1R,2R)-N-(2,4-difluorobenzyl)-2′-ethyl-9′-hydroxy-2-(methoxymethyl)-1′,8′-dioxo-1′,2′,3′,8′-tetrahydrospiro[cyclopropane-1,4′-pyrido[1,2-a]pyrazine]-7′-carboxamide hydrochloride]",5.8 nM
4,"CCN1C[C@]2(C[C@H]2CO)n2cc(C(=O)NCc3ccc(F)cc3F)c(=O)c(O)c2C1=O [Example T10, (1R,2R)-N-(2,4-difluorobenzyl)-2′-ethyl-9′-hydroxy-2-(hydroxymethyl)-1′,8′-dioxo-1′,2′,3′,8′-tetrahydrospiro[cyclopropane-1,4′-pyrido[1,2-a]pyrazine]-7′-carboxamide hydrochloride]",16 nM
5,"CC(C)N1C[C@@]2(C[C@@H]2CO)n2cc(C(=O)NCc3cccc(Cl)c3F)c(=O)c(O)c2C1=O [Example T11, (1S,2S)-N-(3-chloro-2-fluorobenzyl)-9′-hydroxy-2-(hydroxymethyl)-2′-isopropyl-1′,8′-dioxo-1′,2′,3′,8′-tetrahydrospiro[cyclopropane-1,4′-pyrido[1,2-a]pyrazine]-7′-carboxamide hydrochloride]",6 nM
6,"CC(C)N1C[C@@]2(C[C@@H]2C(=O)N(C)C)n2cc(C(=O)NCc3cccc(Cl)c3F)c(=O)c(O)c2C1=O [Example T13, (1S,2S)-N^7′-(3-chloro-2-fluorobenzyl)-9′-hydroxy-2′-isopropyl-N^2,N^2-dimethyl-1′,8′-dioxo-1′,2′,3′,8′-tetrahydrospiro[cyclopropane-1,4′-pyrido[1,2-a]pyrazine]-2,7′-dicarboxamide hydrochloride]",3.4 nM
7,"CC(C)N1C[C@]2(C[C@H]2C(=O)N(C)C)n2cc(C(=O)NCc3cccc(Cl)c3F)c(=O)c(O)c2C1=O [Example T14, (1R,2R)-N^7′-(3-chloro-2-fluorobenzyl)-9′-hydroxy-2′-isopropyl-N^2,N^2-dimethyl-1′,8′-dioxo-1′,2′,3′,8′-tetrahydrospiro[cyclopropane-1,4′ -pyrido[1,2-a]pyrazine]-2,7′-dicarboxamide hydrochloride]",4.8 nM
8,"CN1C[C@@]2(C[C@@H]2CO)n2cc(C(=O)NCc3cccc(Cl)c3F)c(=O)c(O)c2C1=O [Example T15, (1S,2S)-N-(3-chloro-2-fluorobenzyl)-9′-hydroxy-2-(hydroxymethyl)-2′-methyl-1′,8′-dioxo-1′,2′,3′,8′-tetrahydrospiro[cyclopropane-1,4′-pyrido[1,2-a]pyrazine]-7′-carboxamide hydrochloride]",20 nM
9,"CCN1C[C@]2(C[C@H]2CO)n2cc(C(=O)NCc3cccc(Cl)c3F)c(=O)c(O)c2C1=O [Example T17, (1R,2R)-N-(3-chloro-2-fluorobenzyl)-2′-ethyl-9′-hydroxy-2-(hydroxymethyl)-1′,8′-dioxo-1′,2′,3′,8′-tetrahydrospiro[cyclopropane-1,4′-pyrido[1,2-a]pyrazine]-7′-carboxamide hydrochloride]",5.7 nM
10,"CCN1C[C@@]2(C[C@@H]2CO)n2cc(C(=O)NCc3cccc(Cl)c3F)c(=O)c(O)c2C1=O [Example T18, (1S,2S)-N-(3-chloro-2-fluorobenzyl)-2′-ethyl-9′-hydroxy-2-(hydroxymethyl)-1′,8′-dioxo-1′,2′,3′,8′-tetrahydrospiro[cyclopropane-1,4′-pyrido[1,2-a]pyrazine]-7′-carboxamide hydrochloride]",10 nM
11,"CCN1C[C@]2(C[C@H]2COC)n2cc(C(=O)NCc3cccc(Cl)c3F)c(=O)c(O)c2C1=O [Example T20, (1R,2R)-N-(3-chloro-2-fluorobenzyl)-2′-ethyl-9′-hydroxy-2-(methoxymethyl)-1′,8′-dioxo-1′,2′,3′,8′-tetrahydrospiro[cyclopropane-1,4′-pyrido[1,2-a]pyrazine]-7′-carboxamide hydrochloride]",3.5 nM
12,"COC[C@H]1C[C@@]12CN(C)C(=O)c1c(O)c(=O)c(C(=O)NCc3ccc(OC)c(Cl)c3F)cn12 [Example T22, (1S,2S)-N-(3-chloro-2-fluoro-4-methoxybenzyl)-9′-hydroxy-2-(methoxymethyl)-2′-methyl-1′,8′-dioxo-1′,2′,3′,8′-tetrahydrospiro[cyclopropane-1,4′-pyrido[1,2-a]pyrazine]-7′-carboxamide hydrochloride]",4.9 nM
13,"CN1C[C@]2(C[C@H]2CO)n2cc(C(=O)NCc3cccc(Cl)c3F)c(=O)c(O)c2C1=O [Example T23, (1R,2R)-N-(3-chloro-2-fluorobenzyl)-9′-hydroxy-2-(hydroxymethyl)-2′-methyl-1′,8′-dioxo-1′,2′,3′,8′-tetrahydrospiro[cyclopropane-1,4′-pyrido[1,2-a]pyrazine]-7′-carboxamide hydrochloride]",9.6 nM
14,"COC[C@@H]1C[C@]12CN(C)C(=O)c1c(O)c(=O)c(C(=O)NCc3cccc(Cl)c3F)cn12 [Example T24, (1R,2R)-N-(3-chloro-2-fluorobenzyl)-9′-hydroxy-2-(methoxymethyl)-2′-methyl-1′,8′-dioxo-1′,2′,3′,8′-tetrahydrospiro[cyclopropane-1,4-pyrido[1,2-a]pyrazine]-7′-carboxamide hydrochloride]",3.2 nM
15,"CCOc1cc(Cl)c(F)c(CNC(=O)c2cn3c(c(O)c2=O)C(=O)N(C)C[C@@]32C[C@@H]2COC)c1 [Example T25, (1S,2S)-N-(3-chloro-5-ethoxy-2-fluorobenzyl)-9′-hydroxy-2-(methoxymethyl)-2′-methyl-1′,8′-dioxo-1′,2′,3′,8′-tetrahydrospiro[cyclopropane-1,4′-pyrido[1,2-a]pyrazine]-7′-carboxamide hydrochloride]",7 nM
16,"COC[C@H]1C[C@@]12CN(C)C(=O)c1c(O)c(=O)c(C(=O)NCc3cc(OC(C)C)cc(Cl)c3F)cn12 [Example T26, (1S,2S)-N-(3-chloro-2-fluoro-5-isopropoxybenzyl)-9′-hydroxy-2-(methoxymethyl)-2′-methyl-1′,8′-dioxo-1′,2′,3′,8′-tetrahydrospiro[cyclopropane-1,4′-pyrido[1,2-a]pyrazine]-7′-carboxamide hydrochloride]",15 nM

# Same assay, conditions: MT-4 cells infected with HIV-1 NL4-3 strain (MOI 0.05), cultured 5 days, Cell Titer-Glo; read-out: antiviral activity (EC50)
row,SMILES,EC50
1,"CCN1C[C@@]2(C[C@@H]2COC)n2cc(C(=O)NCc3cccc(C(F)(F)F)c3F)c(=O)c(O)c2C1=O [Example T27, (1S,2S)-2′-ethyl-N-(2-fluoro-3-(trifluoromethyl)benzyl)-9′-hydroxy-2-(methoxymethyl)-1′,8′-dioxo-1′,2′,3′,8′-tetrahydrospiro[cyclopropane-1,4′-pyrido[1,2-a]pyrazine]-7′-carboxamide]",97 nM

# Reference: US10087178B2, “Substituted spiropyrido[1,2-a]pyrazine derivative and medicinal use thereof as HIV integrase inhibitor” (priority 2012, dated 2018)
